Results on three compounds are retold here after PMC10511319, “Bacterial pathogens deliver water- and solute-permeable channels to plant cells” (Nature, 2023).

By % inhibition is commonly meant the relative decrease from the control value, in per cent. In general, IC50 refers to the concentration needed to halve the response being measured. Lower therefore signals greater potency in that assay.

Assay [1] concerns the target T1, AvrE (Pseudomonas syringae group genomosp. 3, UniProt Q887C9).
T1 construct: full-length untagged ORF in pGH19, cRNA-injected Xenopus laevis oocytes
Nature of the assay: two-electrode voltage clamp, Xenopus oocytes. The class given is cell-based. The note with it: current at 50 mV test pulse; ND96 saline, pH 7.5; channel block. For orientation: Two-electrode voltage clamp holds a large cell at a set potential and records current.

In assay [2] the target is T2, DspE (MBP–DspE) (Erwinia amylovora, UniProt O54581).
T2 construct: full-length DspE fused to MBP-His8-PPX-Flag; made in E. coli BL21(DE3)
Briefly: liposome carboxyfluorescein release. The class given is biochemical. The note with it: soybean liposomes; 0.05–0.15 µM DspE; 20 mM HEPES, 300 mM NaCl, pH 8.0; channel block.

Assay [3] addresses T3, DspE (Erwinia amylovora, UniProt O54581).
T3 construct: full-length untagged ORF in pGH19, cRNA-injected Xenopus laevis oocytes; strain of oocyte clone not restated
The class given is cell-based. The settings on record: current at 50 mV test pulse; ND96 saline, pH 7.5; channel block.

The target of assay [4] is T1, AvrE. Briefly: oocyte fluorescent dye uptake. In kind it is cell-based. The settings on record: 5 µg/ml fluorescein in ND96 saline; 20 ng avrE cRNA; permeation through channel.

T1 sequence (Q887C9 whole entry): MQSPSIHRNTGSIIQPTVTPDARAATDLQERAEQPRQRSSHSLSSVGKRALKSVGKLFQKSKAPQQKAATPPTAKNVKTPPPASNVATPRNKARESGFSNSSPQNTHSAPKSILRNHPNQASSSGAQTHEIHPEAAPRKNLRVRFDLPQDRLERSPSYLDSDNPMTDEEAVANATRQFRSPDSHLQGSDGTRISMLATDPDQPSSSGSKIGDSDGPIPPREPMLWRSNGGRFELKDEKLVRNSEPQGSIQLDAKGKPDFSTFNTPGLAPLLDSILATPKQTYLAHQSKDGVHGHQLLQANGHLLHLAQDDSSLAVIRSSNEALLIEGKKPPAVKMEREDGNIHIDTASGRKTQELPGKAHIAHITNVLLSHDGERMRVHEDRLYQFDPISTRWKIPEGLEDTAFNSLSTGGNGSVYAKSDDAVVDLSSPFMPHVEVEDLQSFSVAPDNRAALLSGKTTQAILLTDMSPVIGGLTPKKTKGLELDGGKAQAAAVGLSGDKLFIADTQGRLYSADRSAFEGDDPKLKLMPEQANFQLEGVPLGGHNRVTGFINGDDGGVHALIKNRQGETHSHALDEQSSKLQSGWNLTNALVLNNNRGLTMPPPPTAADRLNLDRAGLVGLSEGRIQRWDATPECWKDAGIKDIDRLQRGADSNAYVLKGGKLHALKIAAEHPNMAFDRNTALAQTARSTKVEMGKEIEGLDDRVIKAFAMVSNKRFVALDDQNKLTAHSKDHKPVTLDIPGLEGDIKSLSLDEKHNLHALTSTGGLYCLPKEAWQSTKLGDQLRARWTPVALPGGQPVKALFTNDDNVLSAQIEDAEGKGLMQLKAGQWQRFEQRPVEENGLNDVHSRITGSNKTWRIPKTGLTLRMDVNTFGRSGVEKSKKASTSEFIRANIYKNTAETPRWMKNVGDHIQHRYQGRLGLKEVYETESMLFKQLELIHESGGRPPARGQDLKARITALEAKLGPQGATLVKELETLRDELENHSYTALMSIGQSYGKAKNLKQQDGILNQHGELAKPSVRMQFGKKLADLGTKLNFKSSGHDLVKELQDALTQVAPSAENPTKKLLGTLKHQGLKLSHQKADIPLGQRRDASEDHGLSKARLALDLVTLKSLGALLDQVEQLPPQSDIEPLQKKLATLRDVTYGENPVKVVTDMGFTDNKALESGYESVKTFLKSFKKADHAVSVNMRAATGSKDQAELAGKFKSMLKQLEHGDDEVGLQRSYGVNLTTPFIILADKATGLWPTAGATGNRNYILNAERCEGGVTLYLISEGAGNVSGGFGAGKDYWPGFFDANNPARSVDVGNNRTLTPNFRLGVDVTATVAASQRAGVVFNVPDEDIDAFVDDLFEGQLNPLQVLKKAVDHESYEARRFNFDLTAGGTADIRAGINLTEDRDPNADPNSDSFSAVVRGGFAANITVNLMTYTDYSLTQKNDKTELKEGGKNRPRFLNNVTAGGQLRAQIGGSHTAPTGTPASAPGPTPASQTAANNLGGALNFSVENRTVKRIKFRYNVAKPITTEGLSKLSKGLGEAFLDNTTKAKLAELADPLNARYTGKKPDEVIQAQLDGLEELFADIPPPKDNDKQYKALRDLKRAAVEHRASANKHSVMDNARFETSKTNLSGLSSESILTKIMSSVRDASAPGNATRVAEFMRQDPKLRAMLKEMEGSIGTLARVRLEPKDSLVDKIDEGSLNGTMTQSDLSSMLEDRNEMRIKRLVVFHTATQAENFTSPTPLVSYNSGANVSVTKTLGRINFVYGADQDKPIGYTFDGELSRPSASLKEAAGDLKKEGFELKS
T3 sequence (O54581 whole entry): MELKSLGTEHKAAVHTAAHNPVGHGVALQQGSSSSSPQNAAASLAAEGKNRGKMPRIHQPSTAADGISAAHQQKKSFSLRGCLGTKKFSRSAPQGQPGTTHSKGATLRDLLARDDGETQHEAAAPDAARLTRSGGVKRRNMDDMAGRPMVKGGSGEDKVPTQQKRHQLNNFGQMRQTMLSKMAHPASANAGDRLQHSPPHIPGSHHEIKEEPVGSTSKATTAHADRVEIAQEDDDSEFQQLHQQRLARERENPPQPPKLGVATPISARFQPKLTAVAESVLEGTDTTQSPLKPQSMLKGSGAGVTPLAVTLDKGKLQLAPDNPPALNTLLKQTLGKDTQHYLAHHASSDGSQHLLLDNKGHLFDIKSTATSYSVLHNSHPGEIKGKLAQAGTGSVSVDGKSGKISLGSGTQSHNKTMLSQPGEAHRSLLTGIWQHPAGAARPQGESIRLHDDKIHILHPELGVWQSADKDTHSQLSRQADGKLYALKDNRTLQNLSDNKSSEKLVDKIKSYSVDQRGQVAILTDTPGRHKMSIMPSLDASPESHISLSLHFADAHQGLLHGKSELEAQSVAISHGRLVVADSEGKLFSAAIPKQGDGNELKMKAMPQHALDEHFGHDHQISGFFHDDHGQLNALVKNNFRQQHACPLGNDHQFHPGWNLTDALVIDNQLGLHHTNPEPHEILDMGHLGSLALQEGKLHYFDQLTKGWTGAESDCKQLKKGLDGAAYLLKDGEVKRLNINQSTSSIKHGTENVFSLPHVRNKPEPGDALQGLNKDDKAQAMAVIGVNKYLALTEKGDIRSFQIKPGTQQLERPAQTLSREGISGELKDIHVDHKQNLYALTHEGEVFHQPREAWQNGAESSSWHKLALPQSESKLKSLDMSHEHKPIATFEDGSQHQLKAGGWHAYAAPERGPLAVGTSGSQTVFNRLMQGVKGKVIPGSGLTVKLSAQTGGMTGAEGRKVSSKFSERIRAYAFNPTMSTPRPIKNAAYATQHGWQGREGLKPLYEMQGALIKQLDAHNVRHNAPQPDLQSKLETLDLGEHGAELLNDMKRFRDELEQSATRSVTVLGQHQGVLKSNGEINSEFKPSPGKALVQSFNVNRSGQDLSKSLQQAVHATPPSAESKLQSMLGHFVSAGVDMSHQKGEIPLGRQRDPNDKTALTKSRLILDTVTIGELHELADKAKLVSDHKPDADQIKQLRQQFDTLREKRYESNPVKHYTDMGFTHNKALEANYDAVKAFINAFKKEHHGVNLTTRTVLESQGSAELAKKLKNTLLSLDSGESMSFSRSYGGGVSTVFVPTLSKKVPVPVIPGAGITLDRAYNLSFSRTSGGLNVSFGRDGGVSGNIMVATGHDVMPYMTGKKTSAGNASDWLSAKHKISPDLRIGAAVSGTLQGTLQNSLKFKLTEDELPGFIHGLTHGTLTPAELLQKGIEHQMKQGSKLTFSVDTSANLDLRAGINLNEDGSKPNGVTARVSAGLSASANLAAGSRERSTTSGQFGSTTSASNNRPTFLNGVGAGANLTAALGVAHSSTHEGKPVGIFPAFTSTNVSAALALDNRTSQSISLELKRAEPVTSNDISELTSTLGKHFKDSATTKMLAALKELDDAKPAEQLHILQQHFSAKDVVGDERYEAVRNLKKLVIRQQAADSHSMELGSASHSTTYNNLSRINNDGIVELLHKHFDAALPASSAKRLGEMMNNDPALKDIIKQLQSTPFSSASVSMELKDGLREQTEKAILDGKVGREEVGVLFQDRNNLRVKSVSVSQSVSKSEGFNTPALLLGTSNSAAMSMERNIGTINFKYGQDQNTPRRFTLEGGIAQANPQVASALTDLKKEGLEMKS

Take PAMAM G1: the “% inhibition at 10 mM” value in assay [1] was determined as 93%; in assay [3], 71%. Also, the concentration for half-maximal inhibition (IC50) in assay [2] turned out to be 31 µM. For `O=C1OC2(c3ccc(O)cc3Oc3cc(O)ccc32)c2ccccc21` [fluorescein], the “oocyte fluorescent dye uptake” value in assay [4] is reported as “fluorescein entered oocytes expressing DspE or AvrE, whereas eGFP could not”. For PAMAM G0, in assay [3], the “% inhibition at 10 mM” value came out at 68%.
